Counter-ions that a name gives are not always drawn.
Columns and labels:
Human 5-HT Transporter = Human 5-HT Transporter (Homo sapiens, UniProt P31645); assay: Inhibition of 3H-5-HT Uptake by Cells Possessing the Human 5-HT Transporter (HC 5HT Transporter), Jar cells; settings: HC-5HTC Transporter Ki (nM), Jar cells treated with staurosporine
Chain of Human 5-HT Transporter (P31645 whole entry): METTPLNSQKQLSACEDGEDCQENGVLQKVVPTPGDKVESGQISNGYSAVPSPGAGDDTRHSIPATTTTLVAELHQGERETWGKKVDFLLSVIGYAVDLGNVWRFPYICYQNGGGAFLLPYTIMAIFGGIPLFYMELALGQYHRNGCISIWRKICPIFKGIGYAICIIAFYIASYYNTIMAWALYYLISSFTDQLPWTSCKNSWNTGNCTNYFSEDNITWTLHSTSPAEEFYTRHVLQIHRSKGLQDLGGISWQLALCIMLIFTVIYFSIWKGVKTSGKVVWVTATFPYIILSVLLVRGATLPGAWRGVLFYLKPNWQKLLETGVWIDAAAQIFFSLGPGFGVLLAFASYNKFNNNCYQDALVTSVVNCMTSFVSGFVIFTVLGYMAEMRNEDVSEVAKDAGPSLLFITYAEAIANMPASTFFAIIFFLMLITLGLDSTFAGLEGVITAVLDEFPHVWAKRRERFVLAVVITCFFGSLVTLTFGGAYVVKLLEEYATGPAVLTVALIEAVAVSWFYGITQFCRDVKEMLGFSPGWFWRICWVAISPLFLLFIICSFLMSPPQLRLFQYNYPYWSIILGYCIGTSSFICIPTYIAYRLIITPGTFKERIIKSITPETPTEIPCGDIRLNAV

Row | SMILES | melting point | Ki (Human 5-HT Transporter)
1 | COc1cc(N2CCN(CCc3coc4ccc(F)cc34)CC2)c2ncccc2c1 (as salt: HCl) [Compound 16, 8-{4-[2-(5-fluoro-1-benzofuran-3-yl)ethyl]-1-piperazinyl}-6-methoxy-quinoline] | 80 °C | 
2 | Fc1cc(N2CCN(CCc3coc4ccc(F)cc34)CC2)c2ncccc2c1 (as salt: HCl) [Compound 17, 8-{4-[2-(5-fluoro-1-benzofuran-3-yl)ethyl]-1-piperazinyl}-6-fluoro-quinoline] | 55 °C | 
3 | COc1cc(N2CCN(CCc3coc4c(OC)cccc34)CC2)c2ncccc2c1 (as salt: HCl) [Compound 19, 8-{4-[2-(7-methoxy-1-benzofuran-3-yl)ethyl]-1-piperazinyl}-6-methoxy-quinoline] | 86 °C | 
4 | COc1cccc2c(CCN3CCN(c4cc(Cl)cc5cccnc45)CC3)coc12 (as salt: HCl) [Compound 20, 8-{4-[2-(7-methoxy-1-benzofuran-3-yl)ethyl]-1-piperazinyl}-6-chloro-quinoline] | 248 °C | 
5 | COc1cccc2c(C(C)CN3CCN(c4cccc5cccnc45)CC3)coc12 (stereo not shown) (as salt: HCl) [Compound 31, 8-{4-[2-(7-methoxy-1-benzofuran-3-yl)propyl]-1-piperazinyl}quinoline] | 192 °C | 
6 | COc1cccc2c(C(C)CN3CCN(c4cc(Cl)cc5cccnc45)CC3)coc12 (stereo not shown) (as salt: HCl) [Compound 33, 8-{4-[2-(7-methoxy-1-benzofuran-3-yl)propyl]-1-piperazinyl}-6-chloro-quinoline] | 55 to 58 °C | 
7 | COc1ccc2occ(CCN3CCN(c4cccc5cccnc45)CC3)c2c1 [Compound 21, 8-{4-[2-(5-methoxy-1-benzofuran-3-yl)ethyl]-1-piperazinyl}-quinoline] | 78 °C | 43.6 nM
8 | COc1ccc2occ(CCN3CCN(c4cc(Cl)cc5cccnc45)CC3)c2c1 [Compound 22, 8-{4-[2-(5-methoxy-1-benzofuran-3-yl)ethyl]-1-piperazinyl}-6-chloro-quinoline] | 72 °C | 106 nM
9 | COc1cc(N2CCN(CCc3coc4ccc(OC)cc34)CC2)c2ncccc2c1 [Compound 25, 8-{4-[2-(5-methoxy-1-benzofuran-3-yl)ethyl]-1-piperazinyl}-6-methoxy-quinoline] |  | 210 nM
10 | COc1ccc2occ(CCN3CCN(c4cc(F)cc5cccnc45)CC3)c2c1 [Compound 26, 8-{4-[2-(5-methoxy-1-benzofuran-3-yl)ethyl]-1-piperazinyl}-6-fluoro-quinoline] |  | 51 nM
11 | CC(CN1CCN(c2cccc3cccnc23)CC1)c1coc2ccccc12 (stereo not shown) [Compound 27, 8-{4-[2-(1-benzofuran-3-yl)propyl]-1-piperazinyl}quinoline] |  | 51.9 nM
12 | CC(CN1CCN(c2cc(Cl)cc3cccnc23)CC1)c1coc2ccccc12 (stereo not shown) [Compound 28, 8-{4-[2-(1-benzofuran-3-yl)propyl]-1-piperazinyl}-6-chloro-quinoline] |  | 125 nM
13 | CC(CN1CCN(c2cc(F)cc3cccnc23)CC1)c1coc2ccccc12 (stereo not shown) [Compound 29, 8-{4-[2-(1-benzofuran-3-yl)propyl]-1-piperazinyl}-6-fluoro-quinoline] |  | 115 nM
14 | Cc1cc(N2CCN(CC(C)c3coc4ccccc34)CC2)c2ncccc2c1 (stereo not shown) [Compound 30, 8-{4-[2-(1-benzofuran-3-yl)propyl]-1-piperazinyl}-6-methyl-quinoline] |  | 347 nM
15 | COc1cccc2c(C(C)CN3CCN(c4cccc5cccnc45)CC3)coc12 (stereo not shown) [Compound 31, 8-{4-[2-(7-methoxy-1-benzofuran-3-yl)propyl]-1-piperazinyl}quinoline] |  | 9.53 nM
16 | COc1cccc2c(C(C)CN3CCN(c4cc(C)cc5cccnc45)CC3)coc12 (stereo not shown) [Compound 32, 8-{4-[2-(7-methoxy-1-benzofuran-3-yl)propyl]-1-piperazinyl}-6-methyl-quinoline] |  | 58.2 nM
17 | COc1cccc2c(C(C)CN3CCN(c4cc(Cl)cc5cccnc45)CC3)coc12 (stereo not shown) [Compound 33, 8-{4-[2-(7-methoxy-1-benzofuran-3-yl)propyl]-1-piperazinyl}-6-chloro-quinoline] |  | 183 nM
18 | COc1cccc2c(C(C)CN3CCN(c4cc(C)cc5cccnc45)CC3)coc12 (stereo not shown) [Compound 34, 8-{4-[2-(7-methoxy-1-benzofuran-3-yl)propyl]-1-piperazinyl}-6-methyl-quinoline] |  | 881 nM
19 | COc1cc(N2CCN(C(C)Cc3coc4c(OC)cccc34)CC2)c2ncccc2c1 (stereo not shown) [Compound 36, 6-methoxy-8-{4-[2-(7-methoxy-1-benzofuran-3-yl)-1-methylethyl)piperazin-1-yl]quinoline] |  | 31 nM
20 | COc1ccc2occ(CC(C)N3CCN(c4cc(Cl)cc5cccnc45)CC3)c2c1 (stereo not shown) [Compound 39, 6-chloro-8-{4-[2-(5-methoxy-1-benzofuran-3-yl)-1-methylethyl)piperazin-1-yl]quinoline] |  | 40.1 nM

Row | SMILES | melting point | Ki (Human 5-HT Transporter)
21 | COc1ccc2occ(CC(C)N3CCN(c4cc(C)cc5cccnc45)CC3)c2c1 (stereo not shown) [Compound 40, 6-methyl-8-{4-[2-(5-methoxy-1-benzofuran-3-yl)-1-methylethyl)piperazin-1-yl]quinoline] |  | 549 nM
22 | Clc1cc(N2CCN([C@H]3CC[C@@H](c4csc5ccccc54)CC3)CC2)c2ncccc2c1 [Compound 41, 8-{4-[4-cis-(1-benzothien-3-yl)cyclohexyl]-1-piperazinyl}-6-chloroquinoline] | 164 to 165 °C | 338 nM
23 | Clc1cc(N2CCN([C@H]3CC[C@H](c4csc5ccccc54)CC3)CC2)c2ncccc2c1 [Compound 42, 8-{4-[4-trans(1-benzothien-3-yl)cyclohexyl]-1-piperazinyl}-6-chloroquinoline] | 143 to 144 °C | 184 nM
24 | Fc1cc(N2CCN([C@H]3CC[C@@H](c4csc5ccccc54)CC3)CC2)c2ncccc2c1 [Compound 43, 8-{4-[4-cis(1-benzothien-3-yl)cyclohexyl]-1-piperazinyl}-6-fluoroquinoline] | 147 to 151 °C | 1440 nM
25 | Fc1cc(N2CCN([C@H]3CC[C@H](c4csc5ccccc54)CC3)CC2)c2ncccc2c1 [Compound 44, 8-{4-[4-trans(1-benzothien-3-yl)cyclohexyl]-1-piperazinyl}-6-fluoroquinoline] | 195 °C | 1620 nM
26 | COc1cc(N2CCN([C@H]3CC[C@@H](c4csc5ccccc54)CC3)CC2)c2ncccc2c1 [Compound 45, 8-{4-[4-cis(1-benzothien-3-yl)cyclohexyl]-1-piperazinyl}-6-methoxyquinoline] | 148 to 150 °C | 1080 nM
27 | COc1cc(N2CCN([C@H]3CC[C@H](c4csc5ccccc54)CC3)CC2)c2ncccc2c1 [Compound 46, 8-{4-[4-trans (1-benzothien-3-yl)cyclohexyl]-1-piperazinyl}-6-methoxyquinoline] | 166 to 168 °C | 802 nM
28 | Fc1cc(N2CCN([C@H]3CC[C@H](c4csc5ccc(F)cc54)CC3)CC2)c2ncccc2c1 [Compound 48, 6-fluoro-8-{4-[4-trans(5-fluoro-1-benzothien-3-yl)cyclohexyl]piperazin-1-yl}quinoline] | 143 to 144 °C | 739 nM
29 | COc1cc(N2CCN([C@H]3CC[C@@H](c4csc5ccc(F)cc54)CC3)CC2)c2ncccc2c1 [Compound 49, 6-methoxy-8-{4-[4-cis(5-fluoro-1-benzothien-3-yl)cyclohexyl]piperazin-1-yl}quinoline] |  | 659 nM
30 | COc1cc(N2CCN([C@H]3CC[C@H](c4csc5ccc(F)cc54)CC3)CC2)c2ncccc2c1 [Compound 50, 6-methoxy-8-{4-[4-trans(5-fluoro-1-benzothien-3-yl)cyclohexyl]piperazin-1-yl}quinoline] |  | 65.3 nM
31 | Fc1ccc2scc([C@H]3CC[C@@H](N4CCN(c5ccc(Cl)c6cccnc56)CC4)CC3)c2c1 [Compound 51, 5-chloro-8-{4-[4-cis(5-fluoro-1-benzothien-3-yl)cyclohexyl]piperazin-1-yl}quinoline] | 192 to 197 °C | 1150 nM
32 | Fc1cc(N2CCN([C@H]3CC[C@@H](c4coc5ccccc54)CC3)CC2)c2ncccc2c1 [Compound 55, 8-{4-[4-cis(1-benzofuran-3-yl)cyclohexyl]-1-piperazinyl}-6-fluoroquinoline] |  | 472 nM
33 | COc1cccc2c1occ2[C@H]1CC[C@H](N2CCN(c3ccc(F)c4cccnc34)CC2)CC1 [Compound 58, 5-fluoro-8-{4-[4-trans(7-methoxy-1-benzofuran-3-yl)cyclohexyl]-1-piperazinyl}quinoline] |  | 272 nM
34 | COc1cccc2c1occ2[C@H]1CC[C@@H](N2CCN(c3ccc(Cl)c4cccnc34)CC2)CC1 [Compound 63, 5-chloro-8-{4-[4-cis(7-methoxy-1-benzofuran-3-yl)cyclohexyl]piperazin-1-yl}quinoline] |  | 124 nM
35 | COc1cccc2c1occ2[C@H]1CC[C@H](N2CCN(c3ccc(Cl)c4cccnc34)CC2)CC1 [Compound 64, 5-chloro-8-{4-[4-trans(7-methoxy-1-benzofuran-3-yl)cyclohexyl]piperazin-1-yl}quinoline] |  | 176 nM
36 | COc1ccc2occ([C@H]3CC[C@@H](N4CCN(c5ccc(Cl)c6cccnc56)CC4)CC3)c2c1 [Compound 65, 5-chloro-8-{4-[4-cis(5-methoxy-1-benzofuran-3-yl)cyclohexyl]piperazin-1-yl}quinoline] |  | 53 nM
37 | COc1ccc2occ([C@H]3CC[C@H](N4CCN(c5ccc(Cl)c6cccnc56)CC4)CC3)c2c1 [Compound 66, 5-chloro-8-{4-[4-trans(5-methoxy-1-benzofuran-3-yl)cyclohexyl]piperazin-1-yl}quinoline] |  | 1200 nM
38 | Fc1cc(N2CCN(C3CCC(c4cc5ccccc5o4)CC3)CC2)c2ncccc2c1 (stereo not shown) [Compound 69, 8-[4-(4-benzofuran-2-yl-yclohexyl)-piperazin-1-yl]-6-fluoro-quinoline] | 91 to 93 °C | 
39 | COc1cc(N2CCN([C@H]3CC[C@H](c4cc5ccccc5s4)CC3)CC2)c2ncccc2c1 [Compound 71] | 193 to 194 °C | 

From patent US20090054454A1, “BENZOFURANYL- AND BENZOTHIENYL- PIPERAZINYL QUINOLINES AND METHODS OF THEIR USE” (priority 2007, published 2009)
